According to patent US12403104B2, “Compounds and methods of promoting myelination” (Case Western Reserve University, priority 2016, dated 2025):

Key:
[1] = system: OPCs; experiment: GC/MS-based sterol profiling in OPCs; assay type: cell-based, mouse; conditions: GC/MS; for sterol levels / sterol intermediate accumulation in OPCs: 24 h treatment (siRNA 96 h)
[2] = system: mouse epiblast stem cell-derived OPCs; experiment: In vitro phenotypic screening of OPCs (MBP+ oligodendrocytes at 72 h); assay type: cell-based
Description: Then, 40,000 cells were seeded per well in differentiation medium and allowed to attach for 30 min before addition of drug. […] Sterols were added to cells as an ethanol solution (0.2% final ethanol concentration). […] Cells were incubated under standard conditions (37° C., 5% CO2) for 3 days and fixed with 4% paraformaldehyde (PFA) in phosphate buffered saline (PBS) for 20 min. Fixed plates were washed with PBS (200 μL per well) twice, permeabilized with 0.1% Triton X-100 and blocked with 10% donkey serum (v/v) in PBS for 40 min. […] Nuclei were visualized by DAPI staining (Sigma; 1 μg/ml).

[3] = biological target: T1, EBP (Mus musculus, UniProt P70245); experiment: EBP enzymatic assay (GC/MS); assay type: biochemical; conditions: 10 μM, zymostenol 25 μM
T1 construct: active EBP was obtained from mouse microsomes; from tissue
T1 sequence (P70245 1-230): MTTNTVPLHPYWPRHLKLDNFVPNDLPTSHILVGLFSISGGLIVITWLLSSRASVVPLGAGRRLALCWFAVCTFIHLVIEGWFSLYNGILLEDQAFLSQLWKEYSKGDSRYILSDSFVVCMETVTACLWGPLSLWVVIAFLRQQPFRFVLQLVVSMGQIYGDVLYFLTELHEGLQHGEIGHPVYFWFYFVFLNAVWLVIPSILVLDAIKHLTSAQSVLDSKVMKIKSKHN

[4] = system: mouse primary OPCs; experiment: MBP+ oligodendrocyte formation from mouse primary OPCs; assay type: cell-based; conditions: 72 h
Description: To obtain mouse primary OPCs, whole brain was removed from post-natal day 2 pups anesthetized on ice. Brains were placed in cold DMEM/F12, and the cortices were isolated and the meninges were removed. The cortices were manually chopped and processed with the Tumor Dissociation Kit (Miltenyi) and incubated at 37° C. for 10 minutes. The cell suspension was filtered through a […] filter and centrifuged at 200×g for 4 minutes at room temperature. The cells were washed in DMEM/F12, re-centrifuged and plated in poly-Ornithine and Laminin-treated flasks containing DMEM/P12 supplemented with N2 Max, B27 (ThermoFisher), 20 ng/mL FGF, and 20 ng/mL PDGF. […] were passaged once prior to treatment. Media was changed every 48 hours.
Then, 40,000 cells were seeded per well in differentiation medium and allowed to attach for 30 min before addition of drug. For dose-response testing of all molecules except sterols, a 1000× compound stock in dimethyl sulphoxide (DMSO) was added to assay plates with 0.1 μL solid pin multi-blot replicators (V & P Scientific; VP 409), resulting in a final primary screening concentration of 1×. Sterols were added to cells as an ethanol solution (0.2% final ethanol concentration). […] Cells were incubated under standard conditions (37° C., 5% CO2) for 3 days and fixed with 4% paraformaldehyde (PFA) in phosphate buffered saline (PBS) for 20 min. […]

[5] = system: human glioma cells (GBM528); experiment: GC/MS sterol profiling in human glioma cell line; assay type: cell-based; conditions: 24 h
[6] = system: LPC-lesioned spinal cord; experiment: LPC focal demyelination of spinal cord, remyelination; assay type: in vivo, mouse; conditions: ifenprodil 10 mg per kg, tamoxifen 2 mg per kg, daily intraperitoneal, 8 days
[7] = system: LPC-lesioned spinal cord; conditions: earlier work; cited from earlier work
[8] = system: T47D cells; conditions: 5 days

Compound | sterol levels / sterol intermediate accumulation in OPCs [1] | formation of MBP+ oligodendrocytes from OPCs [2] | inhibition of EBP enzymatic activity [3] | accumulation of sterol intermediates in human glioma cell line [5] | remyelination of LPC lesion [6] | further results
Cc1cc(C)c(CNC(=O)c2cc(-c3ccc(CN4CCOCC4)cc3)cc3c2cnn3C2CCCC2)c(=O)[nH]1 [EPZ005687] | uniquely caused accumulation of zymosterol and zymostenol in OPCs | enhanced oligodendrocyte formation | directly inhibiting EBP enzymatic activity |  |  | oligodendrocyte formation from mouse primary OPCs [4]: enhanced oligodendrocyte formation
CC(C(O)c1ccc(O)cc1)N1CCC(Cc2ccccc2)CC1 (stereo not drawn) [ifenprodil, Ifenprodil] |  |  |  | caused accumulation of the expected sterol intermediates | remyelination was widespread throughout the lesion | 
Clc1ccc(COC(Cn2ccnc2)c2ccc(Cl)cc2Cl)c(Cl)c1 (stereo not drawn) [miconazole, Miconazole] |  |  |  | caused accumulation of the expected sterol intermediates |  | remyelination in mouse models of demyelination (previously established) [7]: enhances remyelination in mouse models of demyelination
CC/C(=C(\c1ccccc1)c1ccc(OCCN(C)C)cc1)c1ccccc1 [tamoxifen, Tamoxifen] | induced accumulation of zymostenol and zymosterol and decreased basal sterol levels |  | clear inhibition | caused accumulation of the expected sterol intermediates | remyelination was widespread throughout the lesion | 
CN(C)CCOc1ccc(/C(=C(/CCCl)c2ccccc2)c2ccccc2)cc1 [toremifene, Toremifene] |  | enhanced MBP+ oligodendrocyte generation over a wide dose range |  |  |  | cholesterol pathway enzyme inhibited in OPCs (from sterol profile) ([1]; 24 h): inhibited EBP; antiestrogen effects on estrogen-dependent growth [8]: comparable antiestrogen effects
